Data set [1] has as its system Hepatitis C virus. As to the kind of experiment: Antiviral activity against HCV genotype 1b infected in human HuH7 cells assessed as inhibition of viral RNA replication at 20 uM after 72 hrs by luciferase reporter gene assay. The data set is classed as functional, Hepacivirus hominis. As to conditions: Huh-7, 72 h. On the technique in general: Reporter assays use an easily measured gene product as a stand-in for the process of interest.

Data set [2] in a line: Cytotoxicity against human HuH7 cells after 72 hrs by MTT assay. Format: cell-based, Huh-7. On the technique in general: Tetrazolium dyes change colour on reduction, which living cells bring about.
In data set [3] the target is T1, Inhibitor of nuclear factor kappa-B kinase subunit beta (Homo sapiens) (UniProt O14920).
T1 sequence (whole entry): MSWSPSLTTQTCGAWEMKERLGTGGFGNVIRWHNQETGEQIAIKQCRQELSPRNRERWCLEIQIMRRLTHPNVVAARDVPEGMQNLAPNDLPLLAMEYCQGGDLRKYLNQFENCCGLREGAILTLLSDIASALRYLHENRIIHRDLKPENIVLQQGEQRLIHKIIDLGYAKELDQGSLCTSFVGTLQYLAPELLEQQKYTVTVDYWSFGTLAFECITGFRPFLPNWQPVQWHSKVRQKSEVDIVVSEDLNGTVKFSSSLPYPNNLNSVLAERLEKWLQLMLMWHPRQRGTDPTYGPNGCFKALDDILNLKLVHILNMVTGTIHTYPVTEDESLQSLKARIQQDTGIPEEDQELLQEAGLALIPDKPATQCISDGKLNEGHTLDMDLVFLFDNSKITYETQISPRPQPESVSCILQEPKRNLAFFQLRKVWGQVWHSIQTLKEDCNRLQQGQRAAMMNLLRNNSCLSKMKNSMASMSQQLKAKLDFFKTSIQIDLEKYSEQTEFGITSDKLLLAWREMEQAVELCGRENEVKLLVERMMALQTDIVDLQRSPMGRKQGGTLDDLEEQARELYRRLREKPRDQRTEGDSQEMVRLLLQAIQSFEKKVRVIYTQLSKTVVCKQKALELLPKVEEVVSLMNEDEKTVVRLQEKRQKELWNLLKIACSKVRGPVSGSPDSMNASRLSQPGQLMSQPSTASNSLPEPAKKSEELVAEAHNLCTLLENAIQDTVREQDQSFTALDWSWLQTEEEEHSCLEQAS
The experiment in a line: Inhibition of human IKKbeta at 10 uM after 40 mins by scintillation counting analysis in presence of [gamma-33P]ATP.

Data set [4] is described as follows: Selectivity index, ratio of CC50 for human HuH7 cells to EC50 for HCV genotype 1b infected in human HuH7 cells. Also noted: species or system Huh-7.
The subject of data set [5] is Hepatitis C virus. The experiment in a line: Antiviral activity against HCV genotype 1b infected in human HuH7 cells assessed as inhibition of viral RNA replication after 72 hrs by luciferase reporter gene assay. Format: functional, organism-based, Hepacivirus hominis. The conditions noted are these: Huh-7, 72 h.
Data set [6] is described as follows: Cytotoxicity against human HEK293 cells after 72 hrs by MTT assay. The data set is classed as cell-based.
Data set [7] has as its target T2, Inhibitor of nuclear factor kappa-B kinase subunit alpha (Homo sapiens) (UniProt O15111).
T2 sequence (whole entry): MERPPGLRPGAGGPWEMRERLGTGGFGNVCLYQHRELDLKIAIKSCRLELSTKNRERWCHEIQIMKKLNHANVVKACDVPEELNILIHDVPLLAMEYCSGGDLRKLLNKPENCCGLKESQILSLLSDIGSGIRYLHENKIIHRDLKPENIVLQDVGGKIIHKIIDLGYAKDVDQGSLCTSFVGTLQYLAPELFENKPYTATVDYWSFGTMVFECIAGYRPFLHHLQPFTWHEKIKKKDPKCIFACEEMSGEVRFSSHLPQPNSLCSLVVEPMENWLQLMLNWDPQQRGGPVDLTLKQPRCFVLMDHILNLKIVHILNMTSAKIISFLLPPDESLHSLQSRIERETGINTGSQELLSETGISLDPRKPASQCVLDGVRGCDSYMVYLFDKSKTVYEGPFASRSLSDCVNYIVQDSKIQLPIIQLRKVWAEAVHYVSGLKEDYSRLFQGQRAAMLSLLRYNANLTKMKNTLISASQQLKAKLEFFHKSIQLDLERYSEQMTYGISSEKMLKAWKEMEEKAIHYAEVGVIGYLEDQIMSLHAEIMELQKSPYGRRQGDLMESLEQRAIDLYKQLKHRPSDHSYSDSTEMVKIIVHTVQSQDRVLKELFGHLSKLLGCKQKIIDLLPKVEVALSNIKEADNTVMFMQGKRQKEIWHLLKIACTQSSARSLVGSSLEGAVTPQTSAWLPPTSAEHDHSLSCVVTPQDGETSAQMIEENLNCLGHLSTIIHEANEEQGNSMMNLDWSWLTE
As to the kind of experiment: Inhibition of human IKKalpha at 10 uM after 40 mins by scintillation counting analysis in presence of [gamma-33P]ATP.

The nature of data set [8]: Cytotoxicity against human LO2 cells after 72 hrs by MTT assay. Format: cell-based, L02.

The results in this text go back to ChEMBL document CHEMBL3124910, “Discovery and structure-activity relationships study of novel thieno[2,3-b]pyridine analogues as hepatitis C virus inhibitors” (Bioorg Med Chem Lett, 2014).

In the case of `COc1cccc(-c2cc(C(F)(F)F)c3c(N)c(C(N)=O)sc3n2)c1`, the inhibition at 20 µM in data set [1] was 45%. Further, the CC50 at 72 h in data set [2] was more than 20 µM.

`COc1ccc(-c2cc(C(F)(F)F)c3c(N)c(C(N)=O)sc3n2)cc1`: the inhibition amounted to 6% in data set [3] and 7% in data set [7]. The “Ratio CC50/EC50” value in data set [4] is 11.6. Besides, in data set [5], the EC50 turned out to be 4 µM. In addition, the CC50 at 72 h was found to be 46.4 µM in data set [2], 24.7 µM in data set [6] and 26.2 µM in data set [8].

The term inhibition denotes the percentage by which the read-out fell short of the control. Broadly, the CC50 is the concentration at which the toxic effect on the cells reaches its halfway point. High values mean better tolerance by the cells, low ones harm at low concentration. For orientation: EC50 means the concentration needed to bring the measured effect to its halfway point.
